# Source: US11802120B2, “Fused cyclic urea derivatives as CRHR2 antagonist” (RaQualia Pharma Inc., priority 2018, dated 2023)
# Target: T1, human CRHR2-alpha (Homo sapiens, UniProt Q13324)
# T1 sequence (Q13324 1-411): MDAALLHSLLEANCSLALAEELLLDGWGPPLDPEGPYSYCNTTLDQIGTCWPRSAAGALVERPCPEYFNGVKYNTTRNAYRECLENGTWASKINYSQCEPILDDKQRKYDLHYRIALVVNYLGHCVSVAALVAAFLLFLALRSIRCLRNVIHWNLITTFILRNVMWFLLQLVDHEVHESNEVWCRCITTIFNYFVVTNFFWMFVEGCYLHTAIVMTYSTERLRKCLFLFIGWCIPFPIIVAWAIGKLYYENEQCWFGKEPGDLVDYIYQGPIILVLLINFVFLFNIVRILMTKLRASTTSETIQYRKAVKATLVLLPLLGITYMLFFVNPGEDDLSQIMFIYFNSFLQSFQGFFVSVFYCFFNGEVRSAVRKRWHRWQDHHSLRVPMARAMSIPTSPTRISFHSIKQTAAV
# Assay: cAMP functional assay for human CRHR2 (LANCE Ultra cAMP, TR-FRET)
# Type: cell-based
# Conditions: CHO-K1 cells expressing human CRHR2-alpha, agonist human urocortin2 at EC80, cAMP; read-out: IC50 against CRHR2
# Summary of the method: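 CHO-K1 stable lines; 4,000 cells/well; compound 30 min, 25° C; EC80 agonist (human urocortin2 → CRHR2, CRF → CRHR1) 30 min, 25° C; buffer HBSS/0.1% BSA/0.5 mM IBMX/5 mM Hepes pH 7.4; Eu-cAMP tracer + ULight antibody 60 min; TR-FRET read; IC50 from % inhibition curves.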
row,IC50 [nM],SMILES
1,< 300,"Cc1ncc(Cl)cc1C(=O)N[C@H]1CC[C@H](Cn2c(=O)n(-c3ccc(F)cc3)c3ccccc32)CC1 [Example 15, 5-chloro-N-((1r,4r)-4-((3-(4-fluorophenyl)-2-oxo-2,3-dihydro-1H-benzo[d]imidazol-1-yl)methyl)cyclohexyl)-2-methylnicotinamide]"
2,< 300,"CN1CCN(c2cccc(-n3c(=O)n(C[C@H]4CC[C@H](NC(=O)c5cc(Cl)cnc5C(F)F)CC4)c4ccccc43)n2)C1=O [Example 774, 5-chloro-2-(difluoromethyl)-N-((1r,4r)-4-((3-(6-(3-methyl-2-oxoimidazolidin-1-yl)pyridin-2-yl)-2-oxo-2,3-dihydro-1H-benzo[d]imidazol-1-yl)methyl)cyclohexyl) nicotinamide]"
3,< 300,"O=C(N[C@H]1CC[C@H](Cn2c(=O)n(-c3cccc(N4CCCC4=O)n3)c3ccccc32)CC1)c1cc(Cl)cnc1C(F)F [Example 776, 5-chloro-2-(difluoromethyl)-N-((1r,4r)-4-((2-oxo-3-(6-(2-oxo-pyrrolidin-1-yl)pyridin-2-yl)-2,3-dihydro-1H-benzo[d]imidazol-1-yl)methyl)cyclo-hexyl)nicotinamide]"
4,< 300,"Cn1ccc(-c2ccc(-n3c(=O)n(C[C@H]4CC[C@H](NC(=O)c5cc(Cl)cnc5C(F)(F)F)CC4)c4ccccc43)cn2)n1 [Example 777, 5-chloro-N-((1r,4r)-4-((3-(6-(1-methyl-1H-pyrazol-3-yl)pyridin-3-yl)-2-oxo-2,3-dihydro-1H-benzo[d]imidazol-1-yl)methyl)cyclohexyl)-2-(trifluoromethyl)nicotinamide]"

# Target: T2, human CRHR1-beta (Homo sapiens, UniProt P34998)
# T2 sequence (P34998 24-444 isoform P34998-1 limits assumed): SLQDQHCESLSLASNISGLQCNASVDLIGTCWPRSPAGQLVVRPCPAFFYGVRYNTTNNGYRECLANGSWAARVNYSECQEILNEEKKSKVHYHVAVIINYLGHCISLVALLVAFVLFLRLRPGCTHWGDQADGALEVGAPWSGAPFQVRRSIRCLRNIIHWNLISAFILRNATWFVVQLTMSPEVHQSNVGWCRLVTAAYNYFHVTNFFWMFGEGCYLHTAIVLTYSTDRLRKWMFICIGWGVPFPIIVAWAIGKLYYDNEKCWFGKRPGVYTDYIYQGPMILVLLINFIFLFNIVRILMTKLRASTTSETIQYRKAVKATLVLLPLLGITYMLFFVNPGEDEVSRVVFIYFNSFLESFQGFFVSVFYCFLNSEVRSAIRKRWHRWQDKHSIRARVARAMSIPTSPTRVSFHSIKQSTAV
# Assay: cAMP functional assay for human CRHR1 (LANCE Ultra cAMP, TR-FRET)
# Type: cell-based
# Conditions: CHO-K1 cells expressing human CRHR1-beta, agonist CRF at EC80, cAMP; read-out: IC50 against CRHR1
# Experimental: cAMP functional assay for human CRHR1 and CRHR2
# The ability of the compounds of this invention to inhibit either CRHR2 or CRHR1 is assessed by 3′,5′-cyclic adenosine monophosphate (cAMP) production in cells using the LANCE Ultra cAMP assay kit (ParkinElmer), which are designed based on the homogeneous time-resolved fluorescence resonance energy transfer (TR-FRET) immunoassay.
# CHO-K1 (Chinese hamster ovary) cells stably expressing either human CRHR2-alpha (DiscoveRX, Cat. 95-0048C2) or human CRHR1-beta (DiscoveRX, Cat. 95-0047C2) are grown in HAM's F12 media supplemented with 10% fetal bovine serum (FBS), 100 units/mL penicillin, 100 microg/mL hygromycin and 0.5 microg/mL geneticin at 37° C. in 5% CO2 humidified incubator to 80% confluence. After 7 hours starvation treatment in culture media containing 0.1% FBS, the cells are washed with Hanks balanced salt solution (HBSS) and cryopreserved.
# For cAMP assay, frozen cells are thawed and washed with HBSS, followed by resuspended in assay buffer (HBSS containing 0.1% bovine serum albumin, 0.5 mM isobutylmethylxanthine and 5 mM Hepes, pH 7.4) at the appropriate concentration for the assay. The cell suspensions are plated on 384-well microplates (Greiner Bio-One) at a density of 4,000 cells per well. After preincubating the cells with various concentrations of the compounds for 30 min at 25° C., an assay buffer containing EC80 concentration of each agonist is added and the cells are incubated for 30 min at 25° C. Human urocortin2 (Peptide Institute) and CRF (Peptide Institute) are used as agonists for CRHR2 and CRHR1, respectively. For the termination of assay, europium-labeled cAMP tracer and ULight (registered trademark) dye labeled cAMP antibodies, both prepared with Lance-Ultra cAMP detection reagent (Perkin Elmer) are added in the plate and incubate for 60 min at 25° C. After incubation, TR-FRET signal is detected by EnVision plate reader (PerkinElmer). The IC50 values for compounds are calculated from dose-response curves by fitting the percent inhibition using XLfit (ID Business Solutions).
row,IC50 [nM],SMILES
1,< 1000,"Cc1ccc(-n2c(=O)n(C[C@H]3CC[C@H](NC(=O)c4cc(Cl)cnc4C)CC3)c3ccccc32)cn1 [Example 31, 5-chloro-2-methyl-N-((1r,4r)-4-((3-(6-methylpyridin-3-yl)-2-oxo-2,3-dihydro-1H-benzo[d]imidazol-1-yl)methyl)cyclohexyl)nicotinamide]"
2,< 1000,"Cc1ncc(Cl)cc1C(=O)N[C@H]1CC[C@H](Cn2c(=O)n(-c3ccc(N4CC[C@H](N(C)C)C4)nc3)c3ccccc32)CC1 [Example 61, 5-chloro-N-((1S,4r)-4-((3-(6-((S)-3-(dimethylamino)pyrrolidin-1-yl)pyridin-3-yl)-2-oxo-2,3-dihydro-1H-benzo[d]imidazol-1-yl)methyl)cyclohexyl)-2-methylnicotinamide]"
3,< 1000,"Cc1ncc(Cl)cc1C(=O)N[C@H]1CC[C@H](Cn2c(=O)n(-c3ccc(N4CCN(CCO)CC4)nc3)c3ccccc32)CC1 [Example 65, 5-chloro-N-((1r,4r)-4-((3-(6-(4-(2-hydroxyethyl)piperazin-1-yl)pyridin-3-yl)-2-oxo-2,3-dihydro-1H-benzo[d]imidazol-1-yl)methyl)cyclohexyl)-2-methylnicotinamide]"
4,< 1000,"Cc1ncc(Cl)cc1C(=O)N[C@H]1CC[C@H](Cn2c(=O)n(-c3ccc(N4CCN(C)CC4)nn3)c3ccccc32)CC1 [Example 68, 5-chloro-2-methyl-N-((1r,4r)-4-((3-(6-(4-methylpiperazin-1-yl)pyridazin-3-yl)-2-oxo-2,3-dihydro-1H-benzo[d]imidazol-1-yl)methyl)cyclohexyl)nicotinamide]"
5,< 1000,"Cc1ncc(Cl)cc1C(=O)N[C@H]1CC[C@H](Cn2c(=O)n(-c3ccc(OCCO)nn3)c3ccccc32)CC1 [Example 69, 5-chloro-N-((1r,4r)-4-((3-(6-(2-hydroxyethoxy)pyridazin-3-yl)-2-oxo-2,3-dihydro-1H-benzo[d]imidazol-1-yl)methyl)cyclohexyl)-2-methylnicotinamide]"
6,< 1000,"Cc1ncc(Cl)cc1C(=O)N[C@H]1CC[C@H](Cn2c(=O)n(-c3ccc(N4CC[C@H](O)C4)nc3)c3ccccc32)CC1 [Example 80, 5-chloro-N-((1S,4r)-4-((3-(6-((S)-3-hydroxypyrrolidin-1-yl)pyridin-3-yl)-2-oxo-2,3-dihydro-1H-benzo[d]imidazol-1-yl)methyl)cyclohexyl)-2-methylnicotinamide]"
7,< 1000,"Cc1ncc(Cl)cc1C(=O)N[C@H]1CC[C@H](Cn2c(=O)n(-c3ccc(N4CC[C@@H](O)C4)nc3)c3ccccc32)CC1 [Example 81, 5-chloro-N-((1R,4r)-4-((3-(6-((R)-3-hydroxypyrrolidin-1-yl)pyridin-3-yl)-2-oxo-2,3-dihydro-1H-benzo[d]imidazol-1-yl)methyl)cyclohexyl)-2-methylnicotinamide]"

# Second part, the molecule before the results:
row,SMILES,IC50 [nM]
1,"Cc1ncc(Cl)cc1C(=O)N[C@H]1CC[C@H](Cn2c(=O)n(CC3CCOCC3)c3ccccc32)CC1 [Example 3, 5-chloro-2-methyl-N-((1r,4r)-4-((2-oxo-3-((tetrahydro-2H-pyran-4-yl)methyl)-2,3-dihydro-1H-benzo[d]imidazol-1-yl)methyl)cyclohexyl)nicotinamide]",< 1000
2,"Cc1ncc(Cl)cc1C(=O)N[C@H]1CC[C@H](Cn2c(=O)n(-c3ccc(F)cc3)c3ccccc32)CC1 [Example 15, 5-chloro-N-((1r,4r)-4-((3-(4-fluorophenyl)-2-oxo-2,3-dihydro-1H-benzo[d]imidazol-1-yl)methyl)cyclohexyl)-2-methylnicotinamide]",< 1000
3,"Cc1ncc(Cl)cc1C(=O)N[C@H]1CC[C@H](Cn2c(=O)n(-c3ccc(CO)cc3)c3ccccc32)CC1 [Example 21, 5-chloro-N-((1r,4r)-4-((3-(4-(hydroxymethyl)phenyl)-2-oxo-2,3-dihydro-1H-benzo[d]imidazol-1-yl)methyl)cyclohexyl)-2-methylnicotinamide]",< 1000
4,"COc1ncc(-n2c(=O)n(C[C@H]3CC[C@H](NC(=O)c4cc(Cl)cnc4C)CC3)c3ccccc32)cn1 [Example 43, 5-chloro-N-((1r,4r)-4-((3-(2-methoxypyrimidin-5-yl)-2-oxo-2,3-dihydro-1H-benzo[d]imidazol-1-yl)methyl)cyclohexyl)-2-methylnicotinamide]",< 1000
5,"Cc1ncc(Cl)cc1C(=O)N[C@H]1CC[C@H](Cn2c(=O)n(-c3ccc(OCCN(C)C)nc3)c3c(C)cccc32)CC1 [Example 59, 5-chloro-N-((1r,4r)-4-((3-(6-(2-(dimethylamino)ethoxy)pyridin-3-yl)-4-methyl-2-oxo-2,3-dihydro-1H-benzo[d]imidazol-1-yl)methyl)cyclohexyl)-2-methylnicotinamide]",< 1000
6,"Cc1ncc(Cl)cc1C(=O)N[C@H]1CC[C@H](Cn2c(=O)n(-c3ccc(OCCN(C)C)cc3)c3ccccc32)CC1 [Example 73, 5-chloro-N-((1r,4r)-4-((3-(4-(2-(dimethylamino)ethoxy)phenyl)-2-oxo-2,3-dihydro-1H-benzo[d]imidazol-1-yl)methyl)cyclo-hexyl)-2-methylnicotinamide]",< 1000
7,"Cc1ncc(Cl)cc1C(=O)N[C@H]1CC[C@H](Cn2c(=O)n(-c3ccc(OC[C@H]4CNCCO4)nc3)c3ccccc32)CC1 [Example 74, 5-chloro-2-methyl-N-((1R,4r)-4-((3-(6-((R)-morpholin-2-ylmethoxy)pyridin-3-yl)-2-oxo-2,3-dihydro-1H-benzo[d]imidazol-1-yl)methyl)cyclohexyl)nicotinamide]",< 1000
8,"Cc1ncc(Cl)cc1C(=O)N[C@H]1CC[C@H](CN2C(=O)N(c3ccccc3)Cc3ccccc32)CC1 [Example 136, 5-chloro-2-methyl-N-((1r,4r)-4-((2-oxo-3-phenyl-3,4-dihydro-quinazolin-1(2H)-yl)methyl)cyclohexyl)nicotinamide]",< 1000
